# Experimental data as given in article PMC9232501, “Results of the phase I CCTG IND.231 trial of CX-5461 in patients with advanced solid tumors enriched for DNA-repair deficiencies” (Nature Communications, 2022).
# Where “and” joins values, the source holds several entries; their conditions need not be identical. Equal values may be shown once.
# Assay: Plasma pharmacokinetics of CX-5461 (HPLC-MS/MS, non-compartmental)
# Assay type: in vivo, human
# Set-up: Day 1 CX-5461 plasma concentration: unit not given here
# Settings: for Day 1 Cmax / Day 8 or 15 Cmax / Day 1 AUC / Day 8 or 15 AUC: one patient per datapoint; for Day 1 Cmax / Day 8 or 15 Cmax: in ng/mL; for Day 1 AUC / Day 8 or 15 AUC: in ng·h/mL (unit assumed)
# Method: PK was assessed on all patients in the escalation phase. Venous blood samples were collected on treatment days 1, 8, and 15 (where applicable), and plasma CX-5461 was analyzed with HPLC-MS/MS (schedule details in Supplementary Table 3). PK parameters were calculated with non-compartmental methods. […] The protocol was amended to allow submission of a ctDNA sample and in a further amendment, a mandatory skin biopsy (pre-treatment and cycle 1 day 15) to study phototoxic effects. Fresh tumor biopsies were optional.
# Supplementary Table 3. Schedule for collection of CX5461 pharmacokinetics
# During infusion at 30 minutes
# Immediately post infusion then:
# C1D1 30 minutes post infusion
# C1D2 24 hours post infusion
# C1D3 48 hours post infusion
# C1D4 72 hours post infusion
# Immediately post infusion then
# C1D15 30 minutes post infusion
# C1D16 24 hours post infusion
# In addition to the specific time points listed above, additional samples were to be collected from […]
smiles,measurement,setting,value
Cc1cnc(CNC(=O)c2c(=O)c3ccc(N4CCCN(C)CC4)nc3n3c2sc2ccccc23)cn1 [CX-5461],Day 1 CX-5461 plasma concentration,"50 mg/m2, Time 0, individual patients",623
same,Day 1 CX-5461 plasma concentration,"50 mg/m2, Time 24, individual patients",40.3 and 34
same,Day 1 CX-5461 plasma concentration,"50 mg/m2, Time 48, individual patients",40 and 22.9
same,Day 1 CX-5461 plasma concentration,"50 mg/m2, Time 72, individual patients",16.6 and 12.9
same,Day 1 CX-5461 plasma concentration,"100 mg/m2, Time 24, individual patients",53.2 and 76.4 and 34.5 and 70.1
same,Day 1 CX-5461 plasma concentration,"100 mg/m2, Time 48, individual patients",49 and 52 and 48
same,Day 1 CX-5461 plasma concentration,"100 mg/m2, Time 72, individual patients",28 and 33.5 and 33.8
same,Day 1 CX-5461 plasma concentration,"150 mg/m2, Time 0, individual patients",415 and 821
same,Day 1 CX-5461 plasma concentration,"150 mg/m2, Time 24, individual patients",176 and 102 and 165 and 350
same,Day 1 CX-5461 plasma concentration,"150 mg/m2, Time 48, individual patients",135 and 49 and 101 and 265
same,Day 1 CX-5461 plasma concentration,"150 mg/m2, Time 72, individual patients",90.2 and 31.2 and 92.6 and 180
same,Day 1 CX-5461 plasma concentration,"200 mg/m2, Time 0, individual patients",218 and 3210 and 1850 and 745
same,Day 1 CX-5461 plasma concentration,"200 mg/m2, Time 24, individual patients",102 and 78.2 and 124
same,Day 1 CX-5461 plasma concentration,"200 mg/m2, Time 48, individual patients",55 and 145 and 69.8 and 79.1
same,Day 1 CX-5461 plasma concentration,"200 mg/m2, Time 72, individual patients",52.5 and 43.9 and 51.7
same,Day 1 CX-5461 plasma concentration,"250 mg/m2, Time 24, individual patients",125 and 233
same,Day 1 CX-5461 plasma concentration,"250 mg/m2, Time 48, individual patients",101 and 169
same,Day 1 CX-5461 plasma concentration,"250 mg/m2, Time 72, individual patients",68 and 111
same,Day 1 CX-5461 plasma concentration,"325 mg/m2, Time 24, individual patients",160 and 193
same,Day 1 CX-5461 plasma concentration,"325 mg/m2, Time 48, individual patients",132 and 97
same,Day 1 CX-5461 plasma concentration,"325 mg/m2, Time 72, individual patients",121 and 69.4
same,Day 1 CX-5461 plasma concentration,"475 mg/m2, Time 24, individual patients",222 and 204
same,Day 1 CX-5461 plasma concentration,"475 mg/m2, Time 48, individual patients",199 and 146
same,Day 1 CX-5461 plasma concentration,"475 mg/m2, Time 72, individual patients",203 and 132
same,Day 1 CX-5461 plasma concentration,"650 mg/m2, Time 24, individual patients",255 and 361 and 196 and 161 and 173 and 233
same,Day 1 CX-5461 plasma concentration,"650 mg/m2, Time 48, individual patients",234 and 439 and 165 and 107 and 154
same,Day 1 CX-5461 plasma concentration,"650 mg/m2, Time 72, individual patients",322 and 261 and 170 and 87.5 and 137 and 154
same,Day 1 CX-5461 plasma concentration,"B: 325 mg/m2, Time 24, individual patients",254 and 120 and 133 and 175
same,Day 1 CX-5461 plasma concentration,"B: 325 mg/m2, Time 48, individual patients",156 and 435 and 136
same,Day 1 CX-5461 plasma concentration,"B: 325 mg/m2, Time 72, individual patients",93.9 and 199 and 103
same,Day 1 CX-5461 plasma concentration,"B: 475 mg/m2, Time 24, individual patients",401 and 324 and 275 and 184
same,Day 1 CX-5461 plasma concentration,"B: 475 mg/m2, Time 48, individual patients",288 and 213 and 252
same,Day 1 CX-5461 plasma concentration,"B: 475 mg/m2, Time 72, individual patients",187 and 199 and 113
same,Day 1 Cmax,Dose level 50 (mg/m2),623 and 1070 and 830 and 388
same,Day 8 or 15 Cmax,Dose level 50 (mg/m2),616 and 1040 and 271
same,Day 1 AUC,Dose level 50 (mg/m2),4080 and 3310
same,Day 8 or 15 AUC,Dose level 50 (mg/m2),6520 and 1970 and 4580
same,Day 1 Cmax,Dose level 100 (mg/m2),1580 and 662 and 799 and 1330
same,Day 8 or 15 Cmax,Dose level 100 (mg/m2),1030 and 243
same,Day 1 AUC,Dose level 100 (mg/m2),4870 and 3830 and 5290
same,Day 8 or 15 AUC,Dose level 100 (mg/m2),7780 and 8830 and 2350
same,Day 1 Cmax,Dose level 150 (mg/m2),2370 and 1080 and 1010
same,Day 8 or 15 Cmax,Dose level 150 (mg/m2),1970 and 1090 and 697
same,Day 1 AUC,Dose level 150 (mg/m2),12000 and 19500 and 11500 and 7650
same,Day 8 or 15 AUC,Dose level 150 (mg/m2),18700 and 23900 and 12600
same,Day 1 Cmax,Dose level 200 (mg/m2),265 and 3210 and 805
same,Day 8 or 15 Cmax,Dose level 200 (mg/m2),1560 and 170 and 2180 and 795
same,Day 1 AUC,Dose level 200 (mg/m2),5690 and 22300 and 12900 and 8410
same,Day 8 or 15 AUC,Dose level 200 (mg/m2),9650 and 2530 and 25500 and 14100
same,Day 1 Cmax,Dose level 250 (mg/m2),867 and 2350 and 1010
same,Day 8 or 15 Cmax,Dose level 250 (mg/m2),1290 and 368 and 654
same,Day 1 AUC,Dose level 250 (mg/m2),16300 and 16100
same,Day 8 or 15 AUC,Dose level 250 (mg/m2),21800 and 18700
same,Day 1 Cmax,Dose level 325 (mg/m2),938 and 960
same,Day 8 or 15 Cmax,Dose level 325 (mg/m2),482 and 1190
same,Day 1 AUC,Dose level 325 (mg/m2),12800 and 11200
same,Day 8 or 15 AUC,Dose level 325 (mg/m2),15200
same,Day 1 Cmax,Dose level 475 (mg/m2),1460 and 2510
same,Day 8 or 15 Cmax,Dose level 475 (mg/m2),1500 and 1940
same,Day 1 AUC,Dose level 475 (mg/m2),17900 and 17100
same,Day 8 or 15 AUC,Dose level 475 (mg/m2),7410 and 31300 and 32900
same,Day 1 Cmax,Dose level 650 (mg/m2),4290 and 1840 and 2280 and 3810 and 3180
same,Day 8 or 15 Cmax,Dose level 650 (mg/m2),6050 and 2790 and 2540 and 5480 and 3990
same,Day 1 AUC,Dose level 650 (mg/m2),29600 and 16700 and 21400
same,Day 8 or 15 AUC,Dose level 650 (mg/m2),48200 and 23200 and 59300 and 44400 and 13900
same,Day 1 Cmax,Dose level B: 325 (mg/m2),1030 and 1200 and 1520
same,Day 8 or 15 Cmax,Dose level B: 325 (mg/m2),3590 and 1510 and 1240
same,Day 1 AUC,Dose level B: 325 (mg/m2),19700 and 20400 and 21500
same,Day 8 or 15 AUC,Dose level B: 325 (mg/m2),48100 and 7080 and 11700 and 7620
same,Day 1 Cmax,Dose level B: 475 (mg/m2),2510 and 2620 and 1660 and 982 and 953
same,Day 8 or 15 Cmax,Dose level B: 475 (mg/m2),1370 and 2630 and 6800 and 1020
same,Day 1 AUC,Dose level B: 475 (mg/m2),43600 and 26400 and 23500 and 32100
same,Day 8 or 15 AUC,Dose level B: 475 (mg/m2),18300 and 14200 and 52600 and 11900 and 7800
same,concentration at 0.5 h,"human, plasma, intravenous, 50 mg/m2, 50 mg/m2, Time 0.5, individual patients, read-out: Day 1 CX-5461 plasma concentration",155 ng/mL
same,concentration at 1 h,"human, plasma, intravenous, 50 mg/m2, 50 mg/m2, Time 1, individual patients, read-out: Day 1 CX-5461 plasma concentration",104 ng/mL
same,concentration at 2 h,"human, plasma, intravenous, 50 mg/m2, 50 mg/m2, Time 2, individual patients, read-out: Day 1 CX-5461 plasma concentration",96.5 ng/mL
same,concentration at 4 h,"human, plasma, intravenous, 50 mg/m2, 50 mg/m2, Time 4, individual patients, read-out: Day 1 CX-5461 plasma concentration",74.9 ng/mL
same,concentration at 6 h,"human, plasma, intravenous, 50 mg/m2, 50 mg/m2, Time 6, individual patients, read-out: Day 1 CX-5461 plasma concentration",61.6 ng/mL
same,concentration at 24 h,"human, plasma, intravenous, 50 mg/m2, 50 mg/m2, Time 24, individual patients, read-out: Day 1 CX-5461 plasma concentration",40 ng/mL
